Laboratory results taken from patent publication US9278914B2, “SARMs and method of use thereof” (UNIVERSITY OF TENNESSEE RESEARCH FOUNDATION, priority 2004, dated 2016).

Key:
[1] = test system: castrated (ORX) male Sprague-Dawley rats; assay: Anabolic and androgenic activity in castrated (ORX) male rats, daily oral gavage for fourteen days; type: in vivo, rat; conditions: ORX rats
Protocol: Male Sprague-Dawley rats weighing approximately 200 g were purchased from Harlan Bioproducts for Science (Indianapolis, Ind.).
The test article for this study was weighed and dissolved in 10% DMSO (Fisher) diluted with PEG 300 (Acros Organics, N.J.) for preparation of the appropriate dosage concentrations. […] Animals were randomly assigned to one of seven groups consisting of 4 to 5 animals per group. Control groups (intact and ORX) were administered vehicle daily. […] Where appropriate, animals were castrated on day one of the study.
(§1) In addition, ventral prostate, seminal vesicles, and levator ani muscle were removed, individually weighed, normalized to body weight, and expressed as a percentage of intact control. Student's T-test was used to compare individual dose groups to the intact control group. Significance was defined a priori as a P-value<0.05. Ventral prostate and seminal vesicle weights were evaluated as a measure of androgenic activity, whereas levator ani muscle weight was evaluated as a measure of anabolic activity. Blood was collected from the abdominal aorta, centrifuged, and sera were frozen at −80° C. prior to determination of serum hormone levels. Serum luteinizing hormone (LH) and follicle stimulating hormone (FSH) concentrations were determined.
(§2) The test article for this study was weighed and dissolved in 10% DMSO (Fisher) diluted with PEG 300 (Acros Organics, N.J.) for preparation of the appropriate dosage concentrations. […] Animals were randomly assigned to one of seven groups consisting of 4 to 5 animals per group. Control groups (intact and ORX) were administered vehicle daily. Compound of formula S-XXIII was administered via oral gavage at doses of 0.01, 0.03, 0.1, 0.3, 0.75, and 1 mg/day to both intact and ORX groups. Where appropriate, animals were castrated on day one of the study. Treatment with compound of formula S-XXIII began nine days post ORX and was administered daily via oral gavage for fourteen days.
Male Sprague-Dawley rats weighing approximately 200 g were purchased from Harlan Bioproducts for Science (Indianapolis, Ind.). […] Regenerative effects of the compound of formula S-XXIV in chronically (9 days) ORX rats was similarly evaluated.
as §2, with “S-XXIV” for “S-XXIII”
Male Sprague-Dawley rats weighing approximately 200 g were purchased from Harlan Bioproducts for Science (Indianapolis, Ind.). […] Anabolic and androgenic activity of compound of formula S-XXV in intact animals was evaluated, and the dose response in acutely orchidectomized (ORX) animals was evaluated as well.
The compound was weighed and dissolved in 10% DMSO (Fisher) diluted with PEG 300 (Acros Organics, N.J.) for preparation of the appropriate dosage concentrations.

[2] = test system: intact male Sprague-Dawley rats; assay: Anabolic and androgenic activity in intact male rats, daily oral gavage; type: in vivo, rat
Protocol: The test article for this study was weighed and dissolved in 10% DMSO (Fisher) diluted with PEG 300 (Acros Organics, N.J.) for preparation of the appropriate dosage concentrations. The animals were housed in groups of 2 to 3 animals per cage. Animals were randomly assigned to one of seven groups consisting of 4 to 5 animals per group. Control groups (intact and ORX) were administered vehicle daily. […] Where appropriate, animals were castrated on day one of the study. Treatment with compound of formula S-II began nine days post ORX and was administered daily via oral gavage for fourteen days.
as §1, with “The animals were sacrificed under anesthesia (ketamine/xyalzine, 87:13 mg/kg) and body weights were recorded. In” for “In”
(§3) The test article for this study was weighed and dissolved in 10% DMSO (Fisher) diluted with PEG 300 (Acros Organics, N.J.) for preparation of the appropriate dosage concentrations. The animals were housed in groups of 2 to 3 animals per cage. Animals were randomly assigned to one of seven groups consisting of 4 to 5 animals per group. Control groups (intact and ORX) were administered vehicle daily. Compound of formula S-XXIII was administered via oral gavage at doses of 0.01, 0.03, 0.1, 0.3, 0.75, and 1 mg/day to both intact and ORX groups. Where appropriate, animals were castrated on day one of the study. Treatment with compound of formula S-XXIII began nine days post ORX and was administered daily via oral gavage for fourteen days.
as §3, with “S-XXIV” for “S-XXIII”, “study.” for “study. Treatment with compound of formula S-XXIII began nine days post ORX and was administered daily via oral gavage for fourteen days.”

CYP1A2 = CYP1A2 (Homo sapiens (Human), UniProt P05177); assay: In vitro CYP inhibition assay; type: biochemical
Protocol: Averages (minus background) and IC50 values were calculated.

Chain of CYP1A2 (P05177 whole entry): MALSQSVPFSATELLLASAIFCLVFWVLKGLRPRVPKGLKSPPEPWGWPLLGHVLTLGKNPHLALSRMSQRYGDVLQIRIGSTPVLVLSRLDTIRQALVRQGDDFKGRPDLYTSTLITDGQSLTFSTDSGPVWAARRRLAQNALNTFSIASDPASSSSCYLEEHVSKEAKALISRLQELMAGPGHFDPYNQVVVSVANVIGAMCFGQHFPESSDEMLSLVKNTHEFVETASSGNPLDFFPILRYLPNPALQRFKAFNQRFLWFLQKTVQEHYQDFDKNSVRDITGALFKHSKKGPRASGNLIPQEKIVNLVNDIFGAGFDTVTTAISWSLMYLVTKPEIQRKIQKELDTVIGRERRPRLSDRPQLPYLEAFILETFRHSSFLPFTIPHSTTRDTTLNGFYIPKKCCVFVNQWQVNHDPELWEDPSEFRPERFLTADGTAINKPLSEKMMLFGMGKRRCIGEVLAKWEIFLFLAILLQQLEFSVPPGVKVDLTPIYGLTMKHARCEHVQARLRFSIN

Q: For `C[C@](O)(COc1ccc(Cl)c(F)c1)C(=O)Nc1ccc(C#N)c(C(F)(F)F)c1` [S-II, (S)-3-(4-chloro-3-fluorophenoxy)-N-(4-cyano-3-(trifluoromethyl)phenyl)-2-hydroxy-2-methylpropanamide], which “Levator ani muscle weight” value ([1]; 0.01 mg/day oral) is on record?
A: The value was 50%±5%.

Q: What about the Prostate weight ([1]; 0.01 mg/day oral) of the same compound?
A: The Prostate weight was 12%±3%.

Q: What about the Seminal vesicle weight ([1]; 0.01 mg/day oral) of the same compound?
A: Its Seminal vesicle weight is 11%±1%.

Q: And the “Levator ani muscle weight” value ([1]; 0.03 mg/day oral)?
A: The value was 62%±6%.

Q: What about the Prostate weight ([1]; 0.03 mg/day oral) of the same compound?
A: Its Prostate weight is 26%±7%.

Q: What about the Seminal vesicle weight ([1]; 0.03 mg/day oral) of the same compound?
A: The Seminal vesicle weight was 11%±1%.

Q: What about the “Levator ani muscle weight” value ([1]; 0.1 mg/day oral) of the same compound?
A: Its value is 89%±10%.

Q: And the Prostate weight ([1]; 0.1 mg/day oral)?
A: Its Prostate weight is 39%±6%.

Q: And the Seminal vesicle weight ([1]; 0.1 mg/day oral)?
A: Its Seminal vesicle weight is 27%±14%.

Q: What about the “Levator ani muscle weight” value ([1]; 0.3 mg/day oral) of the same compound?
A: Its value is 118%±6%.

Q: And the Prostate weight ([1]; 0.3 mg/day oral)?
A: Its Prostate weight is 60%±14%.

Q: And the Seminal vesicle weight ([1]; 0.3 mg/day oral)?
A: The Seminal vesicle weight was 58%±18%.

Q: What about the “Levator ani muscle weight” value ([1]; 0.75 mg/day oral) of the same compound?
A: The value was 134%±8%.

Q: And the Prostate weight ([1]; 0.75 mg/day oral)?
A: Its Prostate weight is 88%±16%.

Q: And the Seminal vesicle weight ([1]; 0.75 mg/day oral)?
A: The Seminal vesicle weight was 86%±12%.

Q: And the Seminal vesicle weight ([1]; 1 mg/day oral)?
A: Its Seminal vesicle weight is 100%±8%.

Q: And the “Levator ani muscle weight” value ([2]; 0.01 mg/day oral)?
A: Its value is 100%±10%.

Q: What about the Prostate weight ([2]; 0.01 mg/day oral) of the same compound?
A: The Prostate weight was 117%±20%.

Q: What about the “Levator ani muscle weight” value ([2]; 0.03 mg/day oral) of the same compound?
A: The value was 98%±7%.

Q: What about the Prostate weight ([2]; 0.03 mg/day oral) of the same compound?
A: The Prostate weight was 98%±15%.

Q: And the “Levator ani muscle weight” value ([2]; 0.1 mg/day oral)?
A: Its value is 110%±5%.

Q: And the Prostate weight ([2]; 0.1 mg/day oral)?
A: The Prostate weight was 82%±20%.

Q: What about the “Levator ani muscle weight” value ([2]; 0.3 mg/day oral) of the same compound?
A: The value was 110%±5%.

Q: What about the Prostate weight ([2]; 0.3 mg/day oral) of the same compound?
A: Its Prostate weight is 62%±5%.

Q: And the “Levator ani muscle weight” value ([2]; 0.75 mg/day oral)?
A: The value was 125%±10%.

Q: What about the Prostate weight ([2]; 0.75 mg/day oral) of the same compound?
A: Its Prostate weight is 107%±30%.

Q: What about the “Levator ani muscle weight” value ([2]; 1 mg/day oral) of the same compound?
A: Its value is 129%±10%.

Q: And the Prostate weight ([2]; 1 mg/day oral)?
A: The Prostate weight was 110%±14%.

Q: And the IC50 (CYP1A2)?
A: The IC50 was > 20 µM.
